Source: ChEMBL document CHEMBL1201862, “PubChem BioAssay data set” (2004)
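1) Cells in 96-well plates. 2) Compound, 48 h, 5 concentrations. 3) Linear interpolation between surrounding doses. 4) Unreached endpoint = highest concentration. GI50 is the concentration that inhibits growth by half.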 Active and inactive are the calls of the source. No stated cut-off is given here; in the data, active = GI50 up to about 1.1 µM and inactive = higher.

Key:
Experiment in all cases: NCI tumour cell line growth inhibition, 48 h
RXF 393 = test system: RXF 393
BT-549 = test system: BT-549
HCT-116 = test system: HCT-116
OVCAR-8 = test system: OVCAR-8
SK-MEL-5 = test system: SK-MEL-5
HOP-62 = test system: HOP-62
786-0 = test system: 786-0
HCC 2998 = test system: HCC 2998
SW-620 = test system: SW-620
RPMI-8226 = test system: RPMI-8226
KM12 = test system: KM12
NCI-H226 = test system: NCI-H226
SK-MEL-28 = test system: SK-MEL-28
SF-295 = test system: SF-295
SK-OV-3 = test system: SK-OV-3
M14 = test system: M14
Malme-3M = test system: Malme-3M
OVCAR-3 = test system: OVCAR-3
A498 = test system: A498
ACHN = test system: ACHN

Measured: GI50

CCOC(=O)/C(C(=O)c1ccc[nH]1)=C1/CCCN1C
inactive: RXF 393 > 100 µM | BT-549 > 100 µM | HCT-116 > 100 µM | OVCAR-8 > 100 µM | SK-MEL-5 > 100 µM | HOP-62 > 100 µM | 786-0 > 100 µM | HCC 2998 > 100 µM | SW-620 > 100 µM | RPMI-8226 > 100 µM | KM12 > 100 µM | NCI-H226 > 100 µM | SK-MEL-28 > 100 µM | SF-295 > 100 µM | SK-OV-3 > 100 µM | M14 > 100 µM | Malme-3M > 100 µM | OVCAR-3 > 100 µM | A498 > 100 µM | ACHN > 100 µM

COc1ccc(-c2cc(-c3ccc(Nc4ccnc5cc(Cl)ccc45)cc3)[nH]c(=O)c2C#N)cc1
inactive: RXF 393 > 100 µM | BT-549 > 100 µM | HCT-116 > 100 µM | OVCAR-8 > 100 µM | HOP-62 80 µM | 786-0 > 100 µM | HCC 2998 > 100 µM | SW-620 > 100 µM | RPMI-8226 > 100 µM | KM12 2.86 µM | NCI-H226 > 100 µM | SK-MEL-28 > 100 µM | SF-295 > 100 µM | SK-OV-3 > 100 µM | M14 > 100 µM | Malme-3M > 100 µM | OVCAR-3 > 100 µM | A498 > 100 µM | ACHN > 100 µM

COc1ccc(Cn2nc(OCc3ccccn3)c3cc([N+](=O)[O-])ccc32)cc1
inactive: RXF 393 > 100 µM | BT-549 > 100 µM | OVCAR-8 63.1 µM | SK-MEL-5 > 100 µM | HOP-62 28.1 µM | 786-0 > 100 µM | HCC 2998 > 100 µM | SW-620 > 100 µM | RPMI-8226 > 100 µM | KM12 > 100 µM | NCI-H226 > 100 µM | SK-MEL-28 > 100 µM | SF-295 50.9 µM | SK-OV-3 63.7 µM | M14 > 100 µM | Malme-3M > 100 µM | OVCAR-3 > 100 µM | A498 > 100 µM | ACHN > 100 µM

COc1ccc(-c2cc3ccccc3oc2=O)cc1OC
inactive: RXF 393 > 100 µM | BT-549 > 100 µM | HCT-116 > 100 µM | OVCAR-8 > 100 µM | SK-MEL-5 81.5 µM | HOP-62 > 100 µM | 786-0 70 µM | HCC 2998 > 10 µM | SW-620 > 100 µM | RPMI-8226 44.6 µM | KM12 > 100 µM | NCI-H226 > 100 µM | SF-295 > 100 µM | SK-OV-3 20.3 µM | M14 > 100 µM | Malme-3M > 100 µM | OVCAR-3 > 100 µM | A498 > 100 µM | ACHN > 100 µM

Nc1[nH]c(Nc2ccc(Cl)c(Cl)c2)nc2ncnc1-2
inactive: RXF 393 4.78 µM | BT-549 12.9 µM | HCT-116 15.1 µM | OVCAR-8 14.7 µM | SK-MEL-5 14.6 µM | HOP-62 12.9 µM | 786-0 15.7 µM | HCC 2998 14.4 µM | SW-620 18.1 µM | RPMI-8226 14.5 µM | KM12 13.7 µM | NCI-H226 20.6 µM | SF-295 17.5 µM | SK-OV-3 15.3 µM | M14 16 µM | Malme-3M 18.2 µM | OVCAR-3 11.7 µM | A498 6.87 µM | ACHN 9.89 µM

CCOC(=O)[C@@]1(C(C)=O)CC(C)=C(C)C[S@@+]1[O-]
inactive: RXF 393 > 100 µM | BT-549 > 100 µM | HCT-116 > 100 µM | OVCAR-8 > 100 µM | HOP-62 > 100 µM | 786-0 > 100 µM | HCC 2998 > 100 µM | SW-620 > 100 µM | RPMI-8226 > 100 µM | KM12 > 100 µM | NCI-H226 > 100 µM | SK-MEL-28 > 100 µM | SF-295 > 100 µM | SK-OV-3 > 100 µM | M14 > 100 µM | Malme-3M > 100 µM | OVCAR-3 > 100 µM | A498 > 100 µM | ACHN > 100 µM

CC(C)(C)OC(=O)NCC(=O)NC1CC=CCC1NC(=O)CNC(=O)OC(C)(C)C (centres undefined)
inactive: RXF 393 > 100 µM | BT-549 > 100 µM | HCT-116 > 100 µM | OVCAR-8 > 100 µM | SK-MEL-5 > 100 µM | HOP-62 > 100 µM | 786-0 > 100 µM | HCC 2998 > 100 µM | SW-620 > 100 µM | RPMI-8226 > 100 µM | KM12 > 100 µM | NCI-H226 > 100 µM | SK-MEL-28 > 100 µM | SF-295 > 100 µM | SK-OV-3 > 100 µM | Malme-3M > 100 µM | OVCAR-3 > 100 µM | A498 > 100 µM | ACHN > 100 µM
